Assays:
[1] = acute per os toxicity (LD50), measured on rats; type: in vivo, rat; conditions: rat, in vivo, po
Description: (§1) The therapeutic indexes of current anthelmintics and transmix each having insecticidal activity and suitable for per os administration are shown in Table 1.

[2] = system: horse bots (Gastrophylus larvas); assay: therapeutic dose / therapeutic index against horse bots; type: in vivo, Gastrophylus species (in horses); conditions: for Therapeutic index (selectivity): quotient of toxic (rat LD50) and therapeutic dose (horse bots)
Protocol: One of the most important characteristics of the pharmaceutical compositions is the quotient of toxic and therapeutic dosage, the so-called therapeutic index characterizing the security of use. The higher is this value, the smaller is the risk in use, the selective is the active ingredient.
On the basis of the results of the laboratory examinations and toxicity data the therapeutic dose usable for treating bot infection of horses was determined in field trials.
as §1

[3] = system: Musca domestica WHO/SRS (L3 larvas); assay: hatching of imagos from L3 fly larvas on treated nutriment; type: in vivo; conditions: 12 days
Description: (§2) For this purpose the activity of several pyrethroid insecticides has been tested per se or in combination with different benzimidazole type anthelmintics on flies (Musca domestica). […] This synergistic interaction was shown not only in the decrease of the therapeutical concentrations but also on the activity of the sublethal doses to the development. The body mass of the larvas is decreased and from the little aurelias evolved during the long development often deformed imagos, unsuitable for further multiplication were hatched out. Above all the synergistic interaction has made possible the decrease of the therapeutic dose of the orally administered insecticide.
(§3) For examining the interaction between benzimidazoles and pyrethroids the larvas of domestic flies in L3 status (Musca domestica WHO/SRS) were used as model organism.
(§4) A nutriment suitable for breeding fly larvas was prepared from yeast, milk, bran and water and the nutriment was portioned into plastic glasses. Acetonic strain solution was prepared from the active ingredients and after dilution the amounts necessary for achieving the desired active ingredient concentrations were added to the nutriment in the plastic glasses.
The examinations were carried out with total active ingredient concentrations of 1, 5, 10, 50, 100 and 200 ppm in 6 parallel tests per each concentration. Into the plastic glasses containing the treated culture medium 20--20 domestic fly-larvas of L3 status were placed after mass measurement. The glasses were covered by gauze and after 12 days the hatched imagos were counted. In the control containing only solvent the hatching ratio was 91%, the average weight of the hatched flies was 18.2 mg.

[4] = system: Musca domestica (L3 larvas); assay: average body mass and hatching % of fly larvas/imagos after treatment; type: in vivo
Description: as §2, §3, §4
Fly larvas of L3 status were grown in identical manner as in an Example 1, on a nutriment having a total active ingredient concentration of 5 and 10 ppm.

horses = horses (Vet. Med., 1985, Apr., p. 68); cited from earlier work
rats = assay: acute per os toxicity (LD50), measured on rats; type: in vivo, rat
Description: as §1

[5] = 100 ppm total active ingredient
[6] = 200 ppm total active ingredient

| Compound | LD50 [1] [mg/kg] | Therapeutic index (selectivity) [2] | number of hatched imagos (from 120 L3) ([3]; 1 ppm total active ingredient) | number of hatched imagos (from 120 L3) ([3]; 5 ppm total active ingredient) | number of hatched imagos (from 120 L3) ([3]; 10 ppm total active ingredient) | number of hatched imagos (from 120 L3) ([3]; 50 ppm total active ingredient) | number of hatched imagos (from 120 L3) [3, 5] | number of hatched imagos (from 120 L3) [3, 6] | average body mass ([4]; 5 ppm total active ingredient) | hatching % ([4]; 5 ppm total active ingredient) [%] | average body mass ([4]; 10 ppm total active ingredient) | hatching % ([4]; 10 ppm total active ingredient) [%] | side effects accompanying treatment (horses) | Toxicity acute per os LD50 (rats) [mg/kg] | Therapeutic dose ([2]; against horse bots, per os) [mg/kg] |
| --- | --- | --- | --- | --- | --- | --- | --- | --- | --- | --- | --- | --- | --- | --- | --- |
| CC1(C)[C@H](C=C(Cl)Cl)[C@H]1C(=O)O[C@H](C#N)c1cccc(Oc2ccccc2)c1 (relative stereo) [Transmix, α-cyano-3-(2,2-dichlorovinyl)-2,2-dimethyl-cyclopropan-carboxylic acid-3-phenoxybenzylester] | 5000 | 2500 | 108 | 112 | 89 | 64 | 39 | 18 | 12.9 | 98 | 9.6 | 84 | – | – | – |
| CCCSc1ccc2nc(NC(=O)OC)[nH]c2c1 [Albendazole, 5(6)-propylthio-benzimidazole-N-methylcarbamate] | – | – | 111 | 113 | 107 | 112 | 107 | 109 | 18.3 | 100 | 17.8 | 100 | – | – | – |
| CC1(C)C(C=C(Cl)Cl)C1C(=O)OC(C#N)c1cccc(Oc2ccccc2)c1 (stereo not drawn) [Chinmix, α-cyano-3-(2,2-dichlorovinyl)-2,2-dimethyl-cyclopropan-carboxylic acid-3-phenoxybenzylester] | – | – | 90 | 62 | 47 | 27 | 4 | 0 | 10.3 | 53 | 7.8 | 41 | – | – | – |
| COP(=O)(OC)OC=C(Cl)Cl [Dichlorvos, 2,2-dichlorovinyl-phosphonic acid dimethylester] | 56 | 11 | – | – | – | – | – | – | – | – | – | – | – | – | – |
| COP(=O)(OC)C(O)C(Cl)(Cl)Cl (stereo not drawn) [Trichlorfon, 2,2,2-trichloro-1-hydroxyethyl-phosphonic acid dimethylester] | 450 | 15 | – | – | – | – | – | – | – | – | – | – | diarrhoea, frequent defecation and urination | – | – |
| dihydro-avermectine B1 [Ivermectine] | – | – | – | – | – | – | – | – | – | – | – | – | – | 10 | 0.2 |

Source: US5006545A, “Veterinary compositions against endoparasites containing cypermethrin and albendazole” (priority 1988, dated 1991)
